Assay results: US8962659B2, “Phenoxyethyl piperidine compounds” (Eli Lilly and Company, priority 2012, dated 2015)
Structures can show the parent of a compound that is named as a salt.

Legend:
human EP3 (isoform VI) = human EP3 (isoform VI) (Homo sapiens (Human), UniProt P43115); test: In vitro binding to human EP3 ([3H]-PGE2 displacement, membranes); details: [3H]-PGE2, HEK293 membranes; read-out: hEP3, Ki
Procedure: (§1) hEP1 and hEP4 membranes are prepared from recombinant HEK293 cells stably expressing the human EP1 (Genbank accession number AY275470) or EP4 (Genbank accession number AY429109) receptors. hEP2 and hEP3 membranes are prepared from HEK293 cells transiently transfected with EP2 (Genbank accession number AY275471) or EP3 (isoform VI: Genbank accession number AY429108) receptor plasmids. Frozen cell pellets are homogenized in homogenization buffer using a Teflon/glass homogenizer. Membrane protein is aliquoted and quick frozen on dry ice prior to storage at -80° C. Homogenization buffer contained 10 mM Tris-HCl, pH 7.4, 250 mM sucrose, 1 mM EDTA, 0.3 mM indomethacin and plus CompleteTM, with EDTA, obtained from Roche Molecular Biochemicals (Catalog Number 1 697 498). Kd values for [3H]-PGE2 binding to each receptor are determined by saturation binding studies or homologous competition. […] Nonspecific binding is calculated by comparing binding in the presence and absence of 2 μM of PGE2. The membranes are harvested by filtration (TomTek harvester), washed 4 times with cold buffer (10 mM MES pH 6.0 with KOH, 10 mM MgCl2), dried in a 60° C. oven, and the radioactivity is quantified as counts per minute (CPM) using a TopCount detector. Percent specific binding is calculated as the percent of the binding in the absence of any inhibitor, corrected for binding in the presence of 2 μM of PGE2.

rat EP4 = rat EP4 (Rattus norvegicus (Rat), UniProt P43114); test: In vitro rat EP4 functional antagonist activity (PGE2-stimulated cAMP, HTRF, HEK293); type: cell-based; details: inhibition of PGE2 (EC80)-stimulated cAMP, read-out: IC50 measured at rat EP4
rat EP4, sequence (P43114 whole entry): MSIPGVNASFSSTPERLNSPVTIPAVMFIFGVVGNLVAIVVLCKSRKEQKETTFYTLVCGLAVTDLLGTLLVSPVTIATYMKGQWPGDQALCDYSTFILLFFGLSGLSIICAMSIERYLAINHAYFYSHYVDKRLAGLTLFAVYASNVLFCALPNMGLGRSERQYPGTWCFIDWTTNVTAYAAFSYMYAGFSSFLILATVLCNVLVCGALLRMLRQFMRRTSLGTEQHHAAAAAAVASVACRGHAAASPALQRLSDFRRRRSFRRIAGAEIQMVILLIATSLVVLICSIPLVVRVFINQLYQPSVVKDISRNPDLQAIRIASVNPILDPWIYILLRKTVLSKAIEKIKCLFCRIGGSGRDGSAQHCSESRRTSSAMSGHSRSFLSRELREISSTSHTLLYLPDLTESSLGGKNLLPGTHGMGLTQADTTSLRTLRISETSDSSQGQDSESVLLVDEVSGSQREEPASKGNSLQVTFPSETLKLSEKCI
Procedure: Rat EP4 cDNA (Genebank Accession# NM—03276) is cloned into pcDNA 3.1 vector and subsequently transfected in HEK293 cells for receptor expression. Rat EP4 stable clone is scaled up and then frozen down as cell bank for future compounds screening. To test EP4 antagonist compounds in rEP4 cells, thaw the frozen cells and then resuspend cells in cAMP assay buffer. […] The cells are plated into 96-well half area flat-bottom polystyrene black plates (Costar 3694). […] Then diluted compounds are added into cAMP assay buffer which contains PGE2 (Cayman 14010, in a concentration predetermined to produce an EC80) at ratio of DMSO/buffer at 1/100. The cells are treated with compounds in the presence of PGE2 (EC80 concentration) for 30 minutes at room temperature. The cAMP levels generated from the cells are quantified by a cAMP HTRF assay kit (Cisbio 62AM4PEC). The plates are read on an EnVision plate reader using HTRF optimized protocol (PerkinElmer). IC50s are calculated using Graphpad Prism (v. 4) nonlinear regression, sigmoidal dose response curve fitting.

human EP2 = human EP2 (Homo sapiens (Human), UniProt P43116); test: In vitro binding to human EP2 ([3H]-PGE2 displacement, membranes); details: [3H]-PGE2, HEK293 membranes; n = 3; read-out: hEP2, Ki
human EP2, sequence (P43116 whole entry): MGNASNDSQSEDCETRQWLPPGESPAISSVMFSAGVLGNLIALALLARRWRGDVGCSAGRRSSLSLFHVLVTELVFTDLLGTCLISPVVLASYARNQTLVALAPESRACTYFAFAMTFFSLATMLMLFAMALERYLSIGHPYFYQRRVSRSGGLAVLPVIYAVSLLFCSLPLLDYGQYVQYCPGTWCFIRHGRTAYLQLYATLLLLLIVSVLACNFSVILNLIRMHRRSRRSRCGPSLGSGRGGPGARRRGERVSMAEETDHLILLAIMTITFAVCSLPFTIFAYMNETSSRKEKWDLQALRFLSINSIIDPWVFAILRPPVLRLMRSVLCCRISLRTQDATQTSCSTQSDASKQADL
Procedure: as §1

human EP1 = human EP1 (Homo sapiens (Human), UniProt P34995); test: In vitro binding to human EP1 ([3H]-PGE2 displacement, membranes); details: [3H]-PGE2, HEK293 membranes; read-out: hEP1, Ki
human EP1, sequence (P34995 whole entry): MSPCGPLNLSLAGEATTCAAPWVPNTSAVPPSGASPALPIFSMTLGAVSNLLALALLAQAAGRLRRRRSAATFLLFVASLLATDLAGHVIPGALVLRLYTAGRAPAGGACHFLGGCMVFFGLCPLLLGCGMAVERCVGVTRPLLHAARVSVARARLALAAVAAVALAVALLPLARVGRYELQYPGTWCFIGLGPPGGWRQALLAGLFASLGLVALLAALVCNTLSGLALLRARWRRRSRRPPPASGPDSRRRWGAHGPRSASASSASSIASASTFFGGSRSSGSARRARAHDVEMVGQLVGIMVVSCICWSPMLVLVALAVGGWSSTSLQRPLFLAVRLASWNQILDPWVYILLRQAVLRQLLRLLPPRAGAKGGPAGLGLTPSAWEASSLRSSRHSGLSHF
Procedure: as §1

human EP3 (isoform VI), sequence (P43115 other isoform, or with tags, fused parts or gaps isoform P43115-4): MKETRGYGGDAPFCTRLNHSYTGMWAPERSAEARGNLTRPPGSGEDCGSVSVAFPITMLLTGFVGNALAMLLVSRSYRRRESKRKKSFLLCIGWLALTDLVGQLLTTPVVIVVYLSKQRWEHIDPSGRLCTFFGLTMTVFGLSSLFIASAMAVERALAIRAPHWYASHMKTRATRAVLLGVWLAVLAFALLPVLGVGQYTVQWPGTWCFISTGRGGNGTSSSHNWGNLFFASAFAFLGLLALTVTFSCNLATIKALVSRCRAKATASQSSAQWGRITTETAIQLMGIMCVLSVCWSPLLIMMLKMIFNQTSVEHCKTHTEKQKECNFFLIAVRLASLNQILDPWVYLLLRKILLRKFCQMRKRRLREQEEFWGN

- Ki (human EP3 (isoform VI)): > 14000 nM
- IC50 (rat EP4): 15 nM
- Ki (human EP2): 1550 ± 1860 nM
- Ki (human EP1): > 17500 nM
SMILES: C[C@H](NC(=O)[C@H]1CCCCN1CCOc1ccccc1)c1ccc(C(=O)O)cc1 [Example 1, 4-[(1S)-1-[[(2R)-1-(2-phenoxyethyl)piperidine-2-carbonyl]amino]ethyl]benzoic acid hydrochloride]
